Results: patent US12552833B2, “Dynamics within supramolecuar IKVAV matrices enhance functional maturation of human IPSCS-derived neurons and regeneration” (Northwestern University, priority 2019, dated 2026)
No end group written: not given here. *: point of attachment. Palmitoyl = CCCCCCCCCCCCCCCC(=O)*

How the values were obtained:
human MNs [1] = assay: Patch-electrode recording of action potentials from human MNs grown on A2G2 and laminin matrices; assay type: cell-based; conditions: MNs grown on A2G2 compared with laminin matrices, day 48-49 (FIG. 4L)
Description: Motor neurons (MN) differentiation: At 70% confluency, iPSC cultures were dissociated using Accutase and plated at a density of 10^5 cells/cm^2 with 10 μM ROCK inhibitor (Y-27632, DNSK International) in mTeSR1. Next day (day 0), media was replaced with N2B27 medium (50% DMEM:F12, 50% Neurobasal, supplemented with NEAA, Glutamax, N2 and B27; Gibco, Life Technologies) containing 10 μM SB431542 (DNSK International), 100 nM LDN-193189 (DNSK International), 1 μM Retinoic Acid (RA, Sigma) and 1 μM of Smoothened-Agonist (SAG, DNSK International). Culture medium was daily changed until day 6, then was switched to N2B27 medium supplemented with 1 μM RA, 1 μM SAG, 5 μM DAPT (DNSK International) and 4 μM SU5402 (DNSK International). Cells were fed daily until day 14, when MNs were dissociated using TrypLE Express (Gibco, Life Technologies) supplemented with DNase I (Worthington) and plated onto pre-coated poly-D-Lysine/laminin or the distinct IKVAV-coated surfaces. MNs were feed 3 times a week with neurobasal medium (NBM: NEAA, Glutamax, N2 and B27) supplemented with Ascorbic acid (0.2 μg/ml; Sigma-Aldrich), BDNF, CNTF and GDNF (10 ng/mL, R&D systems) and 1% fetal bovine serum (FBS).

human MNs [2] = assay: Tandem mass spectrometry and gene ontology (GO) analysis of proteins differentially expressed in MNs cultured on A2G2 IKVAV PA vs. laminin coated surfaces; assay type: cell-based; conditions: A2G2 condition vs. laminin; 21 out of the 58 GO terms of Ho et al., 2016 (FIG. 31A)
Description: FIGS. 31A-31C Assessment of MN maturation through gene ontology (GO) analysis of proteins differentially expressed in MNs cultured on A2G2 IKVAV PA and laminin coated surfaces. Tandem mass spectrometry analysis uncovered differentially expressed proteins between MNs plated on […] surfaces, that are associated with GO terms that have been directly linked to human MN maturation (Ho et al., 2016). (FIG. 31A) From the differentially expressed proteins in A2G2 condition, 21 out of the 58 (36%) GO terms associated with maturation of human MNs were identified. […] Horizontal bar plots display the p-values of the MN maturation related GO terms identified in the protein data set. Pie charts represent the percentage of GO terms obtained in this study compared to the previously described GO terms associated with MN maturation (Ho et al., 2016).
Motor neurons (MN) differentiation: At 70% confluency, iPSC cultures were dissociated using Accutase and plated at a density of 10^5 cells/cm^2 with 10 μM ROCK inhibitor (Y-27632, DNSK International) in mTeSR1. Next day (day 0), media was replaced with N2B27 medium (50% DMEM:F12, 50% Neurobasal, supplemented with NEAA, Glutamax, N2 and B27; Gibco, Life Technologies) containing 10 μM SB431542 (DNSK International), 100 nM LDN-193189 (DNSK International), 1 μM Retinoic Acid (RA, Sigma) and 1 μM of Smoothened-Agonist (SAG, DNSK International). […]

Substance: C16A2G2E4GIKVAV (Palmitoyl-AAGGEEEEGIKVAV) [IKVAV peptide amphiphile with A2G2 structural segment]
- action potential amplitude (human MNs [1]): significantly larger amplitude
- action potential rates of rise and fall (human MNs [1]): faster rates of rise and fall
- GO terms associated with maturation of human MNs identified from the differentially expressed proteins (human MNs [2]): 36%
